Legend:
[1] = biological target: Kelch domain of human KEAP1 (321-624 aa) (Homo sapiens (Human), UniProt Q14145); assay: KEAP1 KELCH ThermoFluor binding assay; details: KEAP Kelch […], 1,8-ANS, pH 7.0, average of results obtained, read-out: Tf Kd;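 further: Ligand-induced melting temperature shift of E. coli-expressed KEAP1 Kelch protein, Kd estimated from concentration-response curves of ΔTm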
[2] = test system: Glo-Response ARE-luc2P HEK293 cell line; assay: ARE luciferase reporter cell-based assay; details: Homo sapiens, HEK293, 24 h, average of results obtained;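 further: luciferase signal tracks Nrf2 activation of the ARE once compounds disrupt KEAP1-Nrf2 binding, read with One-Glo reagent, DMSO serving as low control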

Sequence of Kelch domain of human KEAP1 (321-624 aa) (Q14145 321-624): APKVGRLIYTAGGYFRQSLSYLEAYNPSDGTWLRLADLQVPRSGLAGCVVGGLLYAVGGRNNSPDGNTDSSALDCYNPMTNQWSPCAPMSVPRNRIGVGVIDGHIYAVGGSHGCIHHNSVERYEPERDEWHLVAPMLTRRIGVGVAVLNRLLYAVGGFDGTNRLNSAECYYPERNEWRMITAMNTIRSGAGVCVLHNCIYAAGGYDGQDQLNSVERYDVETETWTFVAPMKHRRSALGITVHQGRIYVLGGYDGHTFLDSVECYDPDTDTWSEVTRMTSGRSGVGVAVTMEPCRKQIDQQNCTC

Kd [1]	SMILES	EC50 [2]
< 1 nM	Cc1ccc(C(CC(=O)O)c2ccn3c(C(F)(F)F)nnc3c2C)cc1CN1C[C@@H]2CCCCN2c2ncccc2S1(=O)=O (stereo in doubt) [Example 289, 3-(3-(((*S)-5,5-Dioxido-7,7a,8,9,10,11-hexahydro-6H-dipyrido[2,1-d:2′,3′-f][1,2,5]thiadiazepin-6-yl)methyl)-4-methylphenyl)-3-(8-methyl-3-(trifluoromethyl)-[1,2,4]triazolo[4,3-a]pyridin-7-yl)propanoic Acid]	19.3 nM
< 1 nM	CCn1nnc2c(C)c(C(CC(=O)O)c3ccc(C)c(CN4C[C@@H]5CCCCN5c5ncccc5S4(=O)=O)n3)ccc21 (stereo in doubt) [Example 301, 3-(6-(((*S)-5,5-Dioxido-7,7a,8,9,10,11-hexahydro-6H-dipyrido[2,1-d:2′,3′-][1,2,5]thiadiazepin-6-yl)methyl)-5-methylpyridin-2-yl)-3-(1-ethyl-4-methyl-1H-benzo[d][1,2,3]triazol-5-yl)propanoic Acid]	4.7 nM
< 1 nM	CCn1nnc2c(C)c(C(CC(=O)O)c3ccc(C)c(CN4C[C@H]5CCCCN5c5ncccc5S4(=O)=O)n3)ccc21 (stereo in doubt) [Example 304, 3-(6-(((*R)-5,5-Dioxido-7,7a,8,9,10,11-hexahydro-6H-dipyrido[2,1-d:2′,3′-][1,2,5]thiadiazepin-6-yl)methyl)-5-methylpyridin-2-yl)-3-(1-ethyl-4-methyl-1H-benzo[d][1,2,3]triazol-5-yl)propanoic Acid]	2.9 nM
< 1 nM	Cc1ccc([C@H](CC(=O)O)c2ccn3c(C(F)(F)F)nnc3c2C)cc1CN1CC2CCCCN2c2ncc(C#N)cc2S1(=O)=O (stereo in doubt) [Example 312, (*S)-3-(3-((3-Cyano-5,5-dioxido-7,7a,8,9,10,11-hexahydro-6H-dipyrido[2,1-d:2′,3′-f][1,2,5]thiadiazepin-6-yl)methyl)-4-methylphenyl)-3-(8-methyl-3-(trifluoromethyl)-[1,2,4]triazolo[4,3-a]pyridin-7-yl)propanoic Acid]	13.1 nM
< 1 nM	Cc1ccc([C@H](c2ccn3c(C(F)(F)F)nnc3c2C)C(C)(C)C(=O)O)cc1CN1CC2(CCOCC2)Oc2nc(NC(C)CN3CCCCC3)c(C)cc2S1(=O)=O (stereo in doubt) [Example 376, 3-(*R)-2,2-Dimethyl-3-(4-methyl-3-((8′-methyl-1′,1′-dioxido-7′-((1-piperidin-1-yl)propan-2-yl)amino)-2,3,5,6-tetrahydrospiro[pyran-4,4′-pyrido[2,3-b][1,4,5]oxathiazepin]-2′(3′H)-yl)methyl)phenyl)-3-(8-methyl-3-(trifluoromethyl)-[1,2,4]triazolo[4,3-a]pyridine-7-yl)propanoic Acid]	57.3 nM
< 1 nM	Cc1ccc(C(CC(=O)O)c2cc(OC3CC3)c3c(c2)nnn3C)cc1CN1C[C@H]2CCCCN2c2ncccc2S1(=O)=O (stereo in doubt) [Example 403, 3-(7-Cyclopropoxy-1-methyl-1H-benzo[d][1,2,3]triazol-5-yl)-3-(3-(((*R)-5,5-dioxido-7,7a,8,9,10,11-hexahydro-6H-dipyrido[2,1-d:2′,3′-f][1,2,5]thiadiazepin-6-yl)methyl)-4-methylphenyl)propanoic Acid]	20.8 nM
< 1 nM	Cc1cc2cc(C(CC(=O)O)c3ccc(C)c(CN4C[C@H]5CCCCN5c5ncccc5S4(=O)=O)c3)n(C)c2nn1 (stereo in doubt) [Example 443, 3-(3,7-Dimethyl-7H-pyrrolo[2,3-c]pyridazin-6-yl)-3-(3-(((*R)-5,5-dioxido-7,7a,8,9,10,11-hexahydro-6H-dipyrido[2,1-d:2′,3′-f][1,2,5]thiadiazepin-6-yl)methyl)-4-methylphenyl)propanoic Acid]	1100 nM
< 1 nM	Cc1ccc(C(CC(=O)O)c2ccn3c(C(F)F)nnc3c2C)cc1CN1C[C@@H]2CCCCN2c2ncccc2S1(=O)=O (stereo in doubt) [Example 446, 3-(3-(Difluoromethyl)-8-methyl-[1,2,4]triazolo[4,3-a]pyridin-7-yl)-3-(3-(((*S)-5,5-dioxido-7,7a,8,9,10,11-hexahydro-6H-dipyrido[2,1-d:2′,3′-f][1,2,5]thiadiazepin-6-yl)methyl)-4-methylphenyl)propanoic Acid]	23.8 nM
1.02 nM	Cc1ccc(C(CC(=O)O)c2ccn3c(C(F)F)nnc3c2C)cc1CN1C[C@@H]2COCCN2c2ncccc2S1(=O)=O (stereo in doubt) [Example 457, 3-(3-(Difluoromethyl)-8-methyl-[1,2,4]triazolo[4,3-a]pyridin-7-yl)-3-(3-(((*R)-5,5-dioxido-7a,8,10,11-tetrahydro-[1,4]oxazino[3,4-d]pyrido[2,3-f][1,2,5]thiadiazepin-6(7H)-yl)methyl)-4-methylphenyl)propanoic Acid]	479 nM
2.73 nM	Cc1ccc(C(CC(=O)O)c2ccn3c(C(F)F)nnc3c2C)cc1CN1C[C@H]2COCCN2c2ncccc2S1(=O)=O (stereo in doubt) [Example 460, 3-(3-(Difluoromethyl)-8-methyl-[1,2,4]triazolo[4,3-a]pyridin-7-yl)-3-(3-(((*S)-5,5-dioxido-7a,8,10,11-tetrahydro-[1,4]oxazino[3,4-d]pyrido[2,3-f][1,2,5]thiadiazepin-6(7H)-yl)methyl)-4-methylphenyl)propanoic Acid]	119 nM
< 1 nM	Cc1ccc(C(CC(=O)O)c2ccn3c(C(F)F)nnc3c2C)cc1CN1C[C@]2(C)CCCN2c2ncccc2S1(=O)=O (stereo in doubt) [Example 475, 3-(3-(Difluoromethyl)-8-methyl-[1,2,4]triazolo[4,3-a]pyridin-7-yl)-3-(4-methyl-3-(((*S)-7a-methyl-5,5-dioxido-7a,8,9,10-tetrahydropyrido[2,3-f]pyrrolo[2,1-d][1,2,5]thiadiazepin-6(7H)-yl)methyl)phenyl)propanoic Acid]	406 nM
< 1 nM	Cc1ccc(C(CC(=O)O)c2ccn3c(C(F)(F)F)nnc3c2C)nc1CN1C[C@@H]2CCCCN2c2ncccc2S1(=O)=O (stereo in doubt) [Example 478, 3-(6-(((*S)-5,5-Dioxido-7,7a,8,9,10,11-hexahydro-6H-dipyrido[2,1-d:2′,3′-f][1,2,5]thiadiazepin-6-yl)methyl)-5-methylpyridin-2-yl)-3-(8-methyl-3-(trifluoromethyl)-[1,2,4]triazolo[4,3-a]pyridin-7-yl)propanoic Acid]	57.6 nM
< 1 nM	Cc1cnc2c(c1)S(=O)(=O)N(Cc1nc(C(CC(=O)O)c3ccn4c(C(F)(F)F)nnc4c3C)ccc1C)C[C@@H]1CCCCN21 (stereo in doubt) [Example 487, 3-(8-Methyl-3-(trifluoromethyl)-[1,2,4]triazolo[4,3-a]pyridin-7-yl)-3-(5-methyl-6-(((*S)-3-methyl-5,5-dioxido-7,7a,8,9,10,11-hexahydro-6H-dipyrido[2,1-d:2′,3′-f][1,2,5]thiadiazepin-6-yl)methyl)pyridin-2-yl)propanoic Acid]	18.3 nM
< 1 nM	Cc1cnc2c(c1)S(=O)(=O)N(Cc1nc(C(CC(=O)O)c3ccn4c(C(F)(F)F)nnc4c3C)ccc1C)C[C@H]1CCCCN21 (stereo in doubt) [Example 490, 3-(8-Methyl-3-(trifluoromethyl)-[1,2,4]triazolo[4,3-a]pyridin-7-yl)-3-(5-methyl-6-(((*R)-3-methyl-5,5-dioxido-7,7a,8,9,10,11-hexahydro-6H-dipyrido[2,1-d:2′,3′-f][1,2,5]thiadiazepin-6-yl)methyl)pyridin-2-yl)propanoic Acid]	5.85 nM
< 1 nM	Cc1ccc(C(CC(=O)O)c2ccn3c(C(F)(F)F)nnc3c2C)nc1CN1C[C@@H]2CCCCN2c2ncc(F)cc2S1(=O)=O (stereo in doubt) [Example 496, 3-(6-(((*S)-3-Fluoro-5,5-dioxido-7,7a,8,9,10,11-hexahydro-6H-dipyrido[2,1-d:2′,3′-f][1,2,5]thiadiazepin-6-yl)methyl)-5-methylpyridin-2-yl)-3-(8-methyl-3-(trifluoromethyl)-[1,2,4]triazolo[4,3-a]pyridin-7-yl)propanoic Acid]	7.65 nM
< 1 nM	Cc1cnc2c(c1)S(=O)(=O)N(Cc1cc(C(CC(=O)O)c3ccn4c(C(F)F)nnc4c3C)ccc1C)C[C@@H]1CCCCN21 (stereo in doubt) [Example 499, 3-(3-(Difluoromethyl)-8-methyl-[1,2,4]triazolo[4,3-a]pyridin-7-yl)-3-(4-methyl-3-(((*S)-3-methyl-5,5-dioxido-7,7a,8,9,10,11-hexahydro-6H-dipyrido[2,1-d:2′,3′-f][1,2,5]thiadiazepin-6-yl)methyl)phenyl)propanoic Acid]	12.8 nM
< 1 nM	Cc1ccc(C(CC(=O)O)c2ccn3c(C(F)F)nnc3c2C)cc1CN1C[C@H]2CCCN2c2ncc(C#N)cc2S1(=O)=O (stereo in doubt) [Example 539, 3-(3-(((*R)-3-Cyano-5,5-dioxido-7a,8,9,10-tetrahydropyrido[2,3-f]pyrrolo[2,1-d][1,2,5]thiadiazepin-6(7H)-yl)methyl)-4-methylphenyl)-3-(3-(difluoromethyl)-8-methyl-[1,2,4]triazolo[4,3-a]pyridin-7-yl)propanoic Acid]	76 nM
602 nM	Cc1ccc(C(CC(N)=O)c2ccn3c(C(F)(F)F)nnc3c2C)cc1CN1C[C@@H]2CCCCN2c2ncccc2S1(=O)=O (stereo in doubt) [Example 547, 3-(3-(((*S)-5,5-Dioxido-7,7a,8,9,10,11-hexahydro-6H-dipyrido[2,1-d:2′,3′-f][1,2,5]thiadiazepin-6-yl)methyl)-4-methylphenyl)-3-(8-methyl-3-(trifluoromethyl)-[1,2,4]triazolo[4,3-a]pyridin-7-yl)propanamide]	9640 nM

From patent publication US10947252B2, “Inhibitors of KEAP1-Nrf2 protein-protein interaction” (Janssen Pharmaceutica NV, priority 2018, dated 2021)
